Source: patent publication US5641804A, “Fungicidal compound comprising a cyclic polylactone” (Novo Nordisk A/S, priority 1992, dated 1997)
≈ marks a conversion by molar mass, not a printed value.

Tests used:
Pyrenophora teres = assay: Agar well inhibition zone, Pyrenophora teres (Pt); assay type: cell-based; set-up: key to inhibition zone Pt: clear; diffuse; very diffuse; +: very weak; conditions: 15 μl per well, 3 days at 25° C.
Protocol: Pyrenophora teres (Pt) net blotch disease
(§1) Each of the above mentioned 9 pathogens were separately innoculated into 100 ml of potato dextrose (PD) bouillon and shaken at 200 rpm at 25° C. for 7 days. The mycelium was harvested and homogenized for about 10 seconds in a Warring blender and 1-5 ml of the blended mycelium was transferred to petri dishes with a diameter of 14 cm. […] 20 ml of potato dextrose agar (PDA) having a temperature of 45° C. were poured into each of the petri dishes and thorougly mixed with the blended mycelium present therein. When the agar had solidified, wells of a diameter of 4 mm were punched in the agar, and 15 μl of test solutions containing varicus concentrations of compound Ia, Ib and IIa dissolved in ethanol was applied to each well. The plates were incubated for three days at 25° C. and the inhibition zones measured (in mm). […]

[1] = test system: mouse peritoneal macrophage; assay: Mouse peritoneal macrophage assay, cellular ATP (viability); assay type: cell-based
Alternaria alternata = assay: Agar well inhibition zone, Alternaria alternata (Aa); assay type: cell-based; conditions: Alternaria alternata, 72 h, 15 μl per well, 3 days at 25° C.
Protocol: Alternaria alternata (Aa) black mould coverings, leaf spot
(§2) Each of the above mentioned 9 pathogens were separately innoculated into 100 ml of potato dextrose (PD) bouillon and shaken at 200 rpm at 25° C. for 7 days. The mycelium was harvested and homogenized for about 10 seconds in a Warring blender and 1-5 ml of the blended mycelium was transferred to petri dishes with a diameter of 14 cm. […] 20 ml of potato dextrose agar (PDA) having a temperature of 45° C. were poured into each of the petri dishes and thorougly mixed with the blended mycelium present therein. When the agar had solidified, wells of a diameter of 4 mm were punched in the agar, and 15 μl of test solutions containing varicus concentrations of compound Ia, Ib and IIa dissolved in ethanol was applied to each well. The plates were incubated for three days at 25° C. and the inhibition zones measured (in mm).
(§3) The experiments were repeated and in the second run, Bc plates were made from Bc spores (the plates were termed Bc2) as such plates may result in a more uniform growth.

Ascochyta pisi = assay: Agar well inhibition zone, Ascochyta pisi (Ap); assay type: cell-based; conditions: Ascochyta pisi, 72 h, 15 μl per well, 3 days at 25° C.
Protocol: Ascochyta pisi (Ap) leaf, stem and pod rot
as §1

Botrytis cinerea [2] = assay: Agar well inhibition zone, Botrytis cinerea, mycelium plates (Bc1); assay type: cell-based; set-up: key to inhibition zone Bc1: clear; diffuse; very diffuse; +: very weak; conditions: 15 μl per well, 3 days at 25° C.
Protocol: (§4) Botrytis cinerea (Bc) grey mould
as §1

Phoma lingam = assay: Agar well inhibition zone, Phoma lingam (Pl); assay type: cell-based; conditions: Plenodomus lingam, 72 h, 15 μl per well, 3 days at 25° C., read-out: inhibition zone P1
Protocol: Phoma lingam (Pl) canker and dry rot
as §1

[3] = test system: mouse peritoneal macrophage; assay: Mouse peritoneal macrophage assay, chemiluminescence (phagocytosis); assay type: cell-based
Botrytis cinerea [4] = assay: Agar well inhibition zone, Botrytis cinerea, plates made from spores (Bc2); assay type: cell-based
Protocol: as §4, §2, §3

Monilinia fructigena = assay: Agar well inhibition zone, Monilinia fructigena (Mf); assay type: cell-based; conditions: Monilinia fructigena, 72 h, 15 μl per well, 3 days at 25° C.
Protocol: Monilinia fructigena (Mf) brown rot, fruit rot
as §1

Botrytis cinerea [5] = assay: Fungicidal activity in vivo against Botrytis cinerea on sprayed plants; conditions: spray to run off, assessed after 6 days
Protocol: Activity of the compounds Ia and Ib against Botrytis cinerea Host: Lycopersicon esculentum (tomato, var. First in Field) […] plants (5 weeks old) were sprayed to run off with liquid solutions using a handhold sprayer (Bink Bullows 900). The solution (70% EtOH) had different concentrations of the compounds Ia and Ib. The plants were kept 24 hours in a green house to dry before they were inoculated with a spore suspension containing 1×10^5 spores/ml in 25% grape juice. The inoculation was carried out with a handhold atomizer (Wagner, Pico Bel). The plants were then incubated (16 hours light (1000 lux) and 8 hours dark) at 15°-20° C. in clear polyethylene bags to raise the relative humidity to 95-100%. After 6 days the assessment was done.

Sclerotinia sclerotiorum = assay: Agar well inhibition zone, Sclerotinia sclerotiorum (Ss); assay type: cell-based; conditions: Sclerotinia sclerotiorum, 72 h, 15 μl per well, 3 days at 25° C.
Protocol: Sclerotinia sclerotiorum (Ss) white mould disease, stem rot
as §1

plant pathogenic fungi = assay: In vitro fungicidal activity spectrum over the pathogens tested; assay type: cell-based
Protocol: The following pathogens were used:
as §2, §3

Phoma betae = assay: Agar well inhibition zone, Phoma betae (Pb); assay type: cell-based; conditions: Neocamarosporium betae, 72 h, 15 μl per well, 3 days at 25° C.
Protocol: Phoma betae (Pb) seedling black rot, black leg
as §1

## C[C@@H]1Cc2cc(O)cc(O)c2C(=O)O[C@H](C)CC(=O)O[C@H](CO)CC(=O)O[C@H](C)Cc2cc(O)cc(O)c2C(=O)O[C@H](C)CC(=O)O1 [Compound Ia]
Pyrenophora teres; 0.05 mg/ml
  inhibition zone Pt: +
Pyrenophora teres; Pyrenophora teres, 72 h, 0.01 mg/ml
  zone of inhibition at 10 µg/mL: 0 mm
Pyrenophora teres; Pyrenophora teres, 72 h, 0.5 mg/ml
  zone of inhibition at 500 µg/mL: 35 mm
Pyrenophora teres; Pyrenophora teres, 72 h, 1.0 mg/ml
  zone of inhibition at 1000 µg/mL: 40 mm
[1]
  IC50: 2.5 µg/mL (≈ 3.77 µM)
Alternaria alternata; 0.01 mg/ml
  zone of inhibition at 10 µg/mL: 0 mm
Alternaria alternata; 0.05 mg/ml
  zone of inhibition at 50 µg/mL: 0 mm
Alternaria alternata; 0.5 mg/ml
  zone of inhibition at 500 µg/mL: 0 mm
Alternaria alternata; 1.0 mg/ml
  zone of inhibition at 1000 µg/mL: 0 mm
Ascochyta pisi; 0.01 mg/ml
  zone of inhibition at 10 µg/mL: 0 mm
Ascochyta pisi; 0.05 mg/ml
  zone of inhibition at 50 µg/mL: 0 mm
Ascochyta pisi; 0.5 mg/ml
  zone of inhibition at 500 µg/mL: 0 mm
Ascochyta pisi; 1.0 mg/ml
  zone of inhibition at 1000 µg/mL: 0 mm
Botrytis cinerea [2]; 0.05 mg/ml
  inhibition zone Bc1: +
Botrytis cinerea [2]; 0.5 mg/ml
  inhibition zone Bc1: +
Botrytis cinerea [2]; 1.0 mg/ml
  inhibition zone Bc1: +
Botrytis cinerea [2]; Botrytis cinerea, 72 h, 0.01 mg/ml
  zone of inhibition at 10 µg/mL: 0 mm
Phoma lingam; 0.01 mg/ml
  zone of inhibition at 10 µg/mL: 0 mm
Phoma lingam; 0.05 mg/ml
  zone of inhibition at 50 µg/mL: 18 mm
Phoma lingam; 0.5 mg/ml
  zone of inhibition at 500 µg/mL: 42 mm
Phoma lingam; 1.0 mg/ml
  zone of inhibition at 1000 µg/mL: 49 mm
[3]
  IC50: 2 µg/mL (≈ 3.02 µM)
Botrytis cinerea [4]; Bc plates
  appearance of Bc zones: very diffuse
  time of incubation after which Bc zones could be seen: ≥ 3 days
Botrytis cinerea [4]; Botrytis cinerea, 72 h, 0.05 mg/ml, 15 μl per well, 3 days at 25° C., plates from spores
  zone of inhibition at 50 µg/mL: 12 mm
Botrytis cinerea [4]; Botrytis cinerea, 72 h, 0.5 mg/ml, 15 μl per well, 3 days at 25° C., plates from spores
  zone of inhibition at 500 µg/mL: 48 mm
Botrytis cinerea [4]; Botrytis cinerea, 72 h, 1.0 mg/ml, 15 μl per well, 3 days at 25° C., plates from spores
  zone of inhibition at 1000 µg/mL: 56 mm
Monilinia fructigena; 0.01 mg/ml
  zone of inhibition at 10 µg/mL: 20 mm
Monilinia fructigena; 0.05 mg/ml
  zone of inhibition at 50 µg/mL: 34 mm
Monilinia fructigena; 0.5 mg/ml
  zone of inhibition at 500 µg/mL: 45 mm
Monilinia fructigena; 1.0 mg/ml
  zone of inhibition at 1000 µg/mL: 50 mm
Botrytis cinerea [5]; 37 ppm
  protection: approx. 10%
Botrytis cinerea [5]; 375 ppm
  protection: approx. 60%
Botrytis cinerea [5]; 1000 ppm
  protection: approx. 60%
Sclerotinia sclerotiorum; 0.01 mg/ml
  zone of inhibition at 10 µg/mL: 0 mm
Sclerotinia sclerotiorum; 0.05 mg/ml
  zone of inhibition at 50 µg/mL: 24 mm
Sclerotinia sclerotiorum; 0.5 mg/ml
  zone of inhibition at 500 µg/mL: 42 mm
Sclerotinia sclerotiorum; 1.0 mg/ml
  zone of inhibition at 1000 µg/mL: 50 mm
Plant pathogenic fungi; all pathogens tested, Table 2
  activity spectrum: more effective than the compound of formula IIa
Plant pathogenic fungi; with respect to Bc only for the plate containing spores
  number of pathogens against which compound was active: 5 pathogens
Phoma betae; 0.01 mg/ml
  zone of inhibition at 10 µg/mL: 0 mm
Phoma betae; 0.05 mg/ml
  zone of inhibition at 50 µg/mL: 0 mm
Phoma betae; 0.5 mg/ml
  zone of inhibition at 500 µg/mL: 0 mm
Phoma betae; 1.0 mg/ml
  zone of inhibition at 1000 µg/mL: 0 mm
